Results: PMC3909768 (Journal of Cancer, 2014)
Where “and” joins values, the source holds several entries; their conditions need not be identical. Equal entries are not always repeated.

Legend:
[1] = Drug concentration in plasma and xenograft tumor after 21-day dosing; settings: male, CB17-SCID, mouse, in vivo
LnCaP-Z2 tumors = assay: LnCaP-Z2 xenograft antitumor efficacy; type: in vivo, male CB17-SCID mice; settings: 50 mg/kg once daily
[2] = Plasma protein binding by equilibrium dialysis, rat; type: in vitro ADME; settings: Rats plasma, 1 uM, equilibrium dialysis 4h 37C
CYP3A = CYP3A induction in human hepatocytes; type: in vitro ADME; settings: for CYP 3A induction, Positive control, %: human hepatocytes, 48 hours
[3] = Plasma protein binding by equilibrium dialysis, dog; type: in vitro ADME; settings: Dogs plasma, 1 uM, equilibrium dialysis 4h 37C
[4] = Plasma protein binding by equilibrium dialysis, human; type: in vitro ADME; settings: 1 uM, equilibrium dialysis 4h 37C
[5] = Brain and prostate distribution after single IV in rats; settings: rat, in vivo, 2 mg/kg; for concentration at 30 min / concentration at 120 min: single IV 2 mg/kg

CC(O)(CS(=O)(=O)c1ccc(F)cc1)C(=O)Nc1ccc(C#N)c(C(F)(F)F)c1 (stereo not drawn) [Bicalutamide, reference compound]
Kp at 24 h ([1]; 50 mg/kg): 2.5 ± 1.36 | concentration at 24 h ([1]; 50 mg/kg): 3250 ng/mL and 8740 ng/g | antitumor efficacy, in words (LnCaP-Z2 tumors): less effective

CNC(=O)c1ccc(N2C(=S)N(c3ccc(C#N)c(C(F)(F)F)c3)C(=O)C2(C)C)cc1F [MDV3100]
Bound fraction [2]: 96.4% | CYP3A induction, in words (CYP3A; 1uM): still active | CYP 3A induction, Positive control, % (CYP3A; 1 uM): 10.0±2.0% | CYP 3A induction, Positive control, % (CYP3A; 10 uM): 73.3±6.8% | Bound fraction [3]: 97.3% | Bound fraction [4]: 98.4% | Kp at 24 h ([1]; 10 mg/kg): 0.53 ± 0.15 | Kp at 30 min [5]: 0.39 ± 0.03 | Kp at 120 min [5]: 0.33 ± 0.16 | concentration at 30 min ([5]; Prostate): 102 ± 4 ng/g | concentration at 120 min ([5]; Prostate): 124 ± 27 ng/g | concentration at 30 min ([5]; brain): 164 ± 19 ng/g | concentration at 120 min ([5]; brain): 152 ± 31 ng/g | concentration at 30 min ([5]; plasma): 0.263 ± 0.019 µg/mL | concentration at 120 min ([5]; plasma): 0.377 ± 0.153 µg/mL
